In patent US10532113B2, “Polymeric systems and uses thereof in theranostic applications” (Ramot at Tel-Aviv University Ltd., priority 2014, dated 2020):

What was measured:
[1] = tested on: murine 4T1 mammary adenocarcinoma cells; assay: Cell viability assay, HPMA conjugate study, 4T1 cells; assay type: cell-based; settings: Mus musculus, 96 hours incubation, read-out: IC50, proliferation of 4T1 cells
Method: (§1) 4T1 cells (3,000 cells/well), HUVEC (10,000 cells/well) and MDA-MB-231 cells (10,000 cells/well) were plated onto 24-well culture plates in RPMI supplemented with 2% FBS, EBM-2 supplemented with 5% FBS or in DMEM supplemented with 10% FBS respectively, and incubated for 24 hours (37° C.; 5% CO2). The medium was then replaced with RPMI 1640 supplemented with 10% FBS, EGM-2 or DMEM supplemented with 10% FBS. Cells were exposed to PTX and PTX bound-conjugates at serial dilutions, at equivalent dose of the free PTX. Number of viable cells was counted by a Z1 Coulter Counter® Cell and Particle Counter (Beckman Coulter®) following 96 hours of incubation.

HUVEC [2] = assay: Cell viability assay, HPMA conjugate study, HUVEC proliferation; assay type: cell-based; settings: Homo sapiens, 96 hours incubation
Method: as §1

[3] = tested on: human MDA-MB-231 mammary adenocarcinoma cells; assay: Cell viability assay, HPMA conjugate study, MDA-MB-231 cells; assay type: cell-based; settings: 72 hours incubation (FIG. 10C), read-out: IC50, proliferation of MDA-MB-231 cells
Method: as §1, with “Number of viable cells was counted by a Z1 Coulter Counter® Cell and Particle Counter (Beckman Coulter®) following 96 hours of incubation.” left out

[4] = tested on: human MDA-MB-231 mammary adenocarcinoma cells; assay: Cell viability assay, PGA-PTX-Cy5 study, MDA-MB-231 cells; assay type: cell-based; settings: 72 hours incubation, read-out: IC50, proliferation of MDA-MB-231 cells
Method: (§2) 4T1 cells (8,000 cells/wells), WM239A cells (15,000 cells/well) and MDA-MB-231 cells (10,000/well) were plated onto 24-well culture in RPMI supplemented with 10% FBS, or in DMEM supplemented with 10% FBS respectively, and incubated for 24 hours (37° C.; 5% CO2). The medium was then replaced with RPMI 1640 supplemented with 10% FBS or DMEM supplemented with 10% FBS.
(§3) Cells were exposed to PTX and PTX-bound conjugates at serial dilutions, at equivalent dose of free PTX. Number of viable cells was counted by a Z1 Coulter Counter® Cell and Particle Counter (Beckman Coulter®) following 72 hours of incubation.

[5] = tested on: murine 4T1 adenocarcinoma cells; assay: Cell viability assay, PGA-PTX-Cy5 study, 4T1 cells; assay type: cell-based; settings: Mus musculus, 72 hours incubation, read-out: IC50, proliferation of 4T1 cells
Method: as §2, §3

[6] = tested on: human WM239A melanoma cells; assay: Cell viability assay, PGA-PTX-Cy5 study, WM239A cells; assay type: cell-based; settings: 72 hours incubation, read-out: IC50, proliferation of WM239A cells
Method: as §2, §3

HUVEC [7] = assay: HUVEC migration scratch assay; assay type: cell-based, human; settings: PTX-equivalent concentration 20 nM; 12 h
Method: The migration of HUVEC in the presence of PGA-PTX-Cy5 conjugate was evaluated using the scratch assay. The method is based on the observation that, upon creation of a new artificial gap, so called “scratch”, on a confluent cell monolayer, the cells on the edge of the newly created gap will move toward the opening to close the “scratch” until new cell-cell contacts are established again. […] At time zero (t=0) images were taken by phase-contrast microscope in a reference point. Following another 12 h of incubation, images of the reference point were taken again. The samples were analyzed quantitatively by ImageJ software.

IC50 [1]: ~35 nM
IC50 [3]: ~0.5 nM
IC50 [4]: ~2 nM
IC50 [5]: ~60 nM
IC50 [6]: ~5 nM
Structure (SMILES): CC(=O)O[C@H]1C(=O)[C@@]2(C)[C@H]([C@H](OC(=O)c3ccccc3)[C@]3(O)C[C@H](OC(=O)[C@H](O)[C@@H](NC(=O)c4ccccc4)c4ccccc4)C(C)=C1C3(C)C)[C@]1(OC(C)=O)CO[C@@H]1C[C@@H]2O [PTX, Paclitaxel]
IC50 (HUVEC [2]): ~2 nM
HUVEC migration, gap closure (HUVEC [7]): 20%
